Source: US12479816B2, “20-HETE formation inhibitors” (UNIVERSITY OF PITTSBURGH—OF THE COMMONWEALTH SYSTEM OF …, priority 2019, dated 2025)
Where two headings read alike, the source gives them in different places.

Assays:
[1] = HLM stability determination; assay type: in vitro ADME, human; settings: HLM 500 μg/ml, 1 μM compound, NADPH, relative to 0 min
Protocol: HLM stability determinations shown in Table 3 were obtained as follows. Microsomal incubates contained HLM (500 μg/ml), test compounds (1 μM) and NADPH (1.3 mM) in a 1 ml total volume of microsomal incubation buffer (0.12 M potassium phosphate buffer containing 5 mM magnesium chloride). Reaction was started by adding NADPH to the incubates and was carried out at 37° C. in a shaking water bath for 60 min. At 0, 15, 30, 45, 60 min, a 50 μl aliquot of incubates was taken out and reaction was stopped by adding aliquot into 200 μl ice-cold acetonitrile. After centrifugation at 14000×g for 5 min, 200 μl supernatant was taken out for UPLC-MS/MS analysis as described above. Values at 0 min were used as corresponding control for test compounds. Varapamil, metoprolol, and warfarin, categorized as fast, moderate and slow metabolism, were used as positive control. Incubates without NADPH group served as negative control.

[2] = system: 20-HETE formation (CYP4) in HLM; assay: IC50 determination, 20-HETE formation in HLM; assay type: biochemical, human; settings: HLM 300 μg/ml, AA 100 μM, 12 concentrations
Protocol: (§1) Microsomal incubations contained HLM, RLM (300 μg/ml), AA (100 μM), NADPH (1 mM) and test compounds at 12 concentrations (0.1 nM-50 μM) in a 1 ml total volume in microsomal incubation buffer (0.12 M potassium phosphate buffer containing 5 mM magnesium chloride). Reaction was started by adding NADPH to the incubates and was carried out at 37° C. in a shaking water bath for 20 min. Reaction was stopped by placing tubes on ice, followed by adding 12.5 μl 20-HETE-d6 as internal standard to each sample. Microsomal incubations were extracted with 3 ml ethyl ether twice, dried down under nitrogen gas and reconstituted in 125 μl 80:20 methanol:deionized H2O for analysis. 20-HETE formation was quantified using the validated UPLC-MS/MS assay described above and normalized by vehicle group. HET0016 (250 nM) was used as positive control. Incubates without NADPH group served as the negative control. IC50 was determined by fitting the dose-response curve using Graphpad Prism nonlinear regression.

[3] = system: 20-HETE formation (CYP4) in HLM; assay: Inhibition of 20-HETE formation at 250 or 500 nM in HLM microsomal incubations; assay type: biochemical, human; settings: 500 nM compound; HLM 300 μg/ml, AA 100 μM, 20 min
In short: (§2)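 Liver or kidney microsomes (300 μg/ml) or rCYP4F2 (25 pmol/mL) were incubated with 100 μM arachidonic acid, 1 mM NADPH and compound at 250 or 500 nM in 0.12 M potassium phosphate/5 mM MgCl2 for 20 min at 37 °C. 20-HETE was measured by UPLC-MS/MS against 20-HETE-d6 and expressed as % of vehicle (n=3).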

[4] = target: T1, rCYP4F2 (Homo sapiens, UniProt P78329); assay: Inhibition of 20-HETE formation at 250 or 500 nM in rCYP4F2 incubations; assay type: biochemical; settings: 500 nM compound; rCYP4F2 25 pmol/mL; read-out: rCYP4F2 % inh. @ 500 nM
T1 sequence (P78329 5-520): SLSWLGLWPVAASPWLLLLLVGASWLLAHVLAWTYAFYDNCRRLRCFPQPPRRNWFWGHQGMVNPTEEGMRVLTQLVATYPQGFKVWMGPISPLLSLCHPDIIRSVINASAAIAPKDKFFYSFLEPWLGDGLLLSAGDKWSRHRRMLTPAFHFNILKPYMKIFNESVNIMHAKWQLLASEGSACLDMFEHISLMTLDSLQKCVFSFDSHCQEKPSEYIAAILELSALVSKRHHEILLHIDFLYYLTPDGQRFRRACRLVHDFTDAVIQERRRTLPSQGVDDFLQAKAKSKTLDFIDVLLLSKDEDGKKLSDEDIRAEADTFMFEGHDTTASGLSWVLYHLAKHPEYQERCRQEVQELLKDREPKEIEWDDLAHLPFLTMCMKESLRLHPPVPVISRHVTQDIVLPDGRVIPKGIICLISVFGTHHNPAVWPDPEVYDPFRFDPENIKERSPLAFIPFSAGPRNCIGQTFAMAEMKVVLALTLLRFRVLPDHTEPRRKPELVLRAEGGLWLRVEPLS
In short: as §2

[5] = system: 20-HETE formation (CYP4) in RKM; assay: Inhibition of 20-HETE formation at 250 or 500 nM in RKM microsomal incubations; assay type: biochemical, rat; settings: 500 nM compound; RKM 300 μg/ml
In short: as §2

[6] = system: 20-HETE formation (CYP4) in RLM; assay: Inhibition of 20-HETE formation at 250 or 500 nM in RLM microsomal incubations; assay type: biochemical, rat; settings: 500 nM compound; RLM 300 μg/ml
In short: as §2

[7] = target: formation of EETs and DiHETs (epoxygenase activity) in HLM; assay: Selectivity: inhibition of EETs and DiHETs formation (epoxygenase activity) in HLM; assay type: biochemical, human; settings: for IC50: sum of EETs and DiHETs
Protocol: Selectivity of compounds for inhibition of 20-HETE formation vs inhibition of formation of 8,9-, 11,12-, 14,15-EET and 5,6-, 8,9-, 11,12-, 14,15-DiHETs was assessed via the simultaneous monitor of formation of 20-HETE and those metabolites under the UPLC-MS/MS assay conditions described above using HLM incubations and the same 12 test compound concentrations (0.1 nM-[…]) used for the IC50 determination experiments. At each of the 12 concentrations, the selectivity of 20-HETE inhibition over the other metabolites was compared. Epoxygenase activity was assessed by the sum of EETs and DiHETEs as percentage of control.

[8] = Turbidometric solubility determination; assay type: physicochemical; settings: PBS with 1% DMSO, aqueous buffer, kinetic from dmso stock, room temperature
In short: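 Kinetic turbidimetric solubility: DMSO stocks diluted 1:100 into PBS in triplicate to give 0–600 μM in 1% DMSO. Shaken 2 h at room temperature, then OD620 read. Solubility limit taken as the concentration giving a statistically significant absorbance rise above background.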

[9] = system: 20-HETE formation (CYP4) in RLM; assay: IC50 determination, 20-HETE formation in RLM; assay type: biochemical, rat; settings: RLM 300 μg/ml, AA 100 μM, 12 concentrations
Protocol: as §1

SMILES: c1ccc(CC2CCN(c3ccn[nH]3)CC2)cc1 [Compound 2, 4-Benzyl-1-(1H-pyrazol-5-yl)piperidine]
- Stability HLM % @ 30 min [1]: 61%
- IC50 [2]: 0.15 µM
- HLM % inh. @ 500 nM [3]: 59.90%
- inhibition at 0.5 µM [4]: 47.6%
- RKM % inh. @ 500 nM [5]: 0.00%
- RLM % inh. @ 500 nM [6]: 0.00%
- IC50 [7]: > 50000 nM

SMILES: COc1cccc(C2CCN(c3ccn[nH]3)CC2)c1 [Compound 7, 4-(3-Methoxyphenyl)-1-(1H-pyrazol-5-yl)piperidine]
- IC50 [2]: 0.19 µM
- HLM % inh. @ 500 nM [3]: 51.70%
- inhibition at 0.5 µM [4]: 6.5%
- RKM % inh. @ 500 nM [5]: 0.00%
- RLM % inh. @ 500 nM [6]: 42.30%
- solubility at 2 h ([8]; OD620, read-out: Max Solub): 494 µM
- solubility at 2 h ([8]; read-out: Solubility_ug/mL): 127 µg/mL
- EETs Inhibition, % @ 50,000 ([7]; at 50,000 (nM per column head)): 2.6% @ 50,000

SMILES: COc1cccc(C2CCN(c3cn[nH]c3)CC2)c1 [Compound 8, 4-(3-Methoxyphenyl)-1-(1H-pyrazol-4-yl)piperidine]
- IC50 [2]: 0.17 µM
- HLM % inh. @ 500 nM [3]: 62.70%
- inhibition at 0.5 µM [4]: 48.9%
- RKM % inh. @ 500 nM [5]: 0.00%
- RLM % inh. @ 500 nM [6]: 45.50%
- solubility at 2 h ([8]; OD620, read-out: Max Solub): 111 µM
- solubility at 2 h ([8]; read-out: Solubility_ug/mL): 29 µg/mL
- IC50 [7]: > 50000 nM

SMILES: COCc1ccc(C2CCN(c3cn[nH]c3)CC2)cc1 [Compound 26, 4-(4-(Methoxymethyl)phenyl)-1-(1H-pyrazol-4-yl)piperidine]
- Stability HLM % @ 30 min [1]: 100%
- IC50 [2]: 0.2 µM
- HLM % inh. @ 500 nM [3]: 71.70%
- inhibition at 0.5 µM [4]: 81.7%
- RLM % inh. @ 500 nM [6]: 27.80%
- solubility at 2 h ([8]; OD620, read-out: Max Solub): 366 µM
- solubility at 2 h ([8]; read-out: Solubility_ug/mL): 99.4 µg/mL

SMILES: CC(=O)Nc1ccc(C2CCN(c3cn[nH]c3)CC2)cc1 [Compound 30, N-(4-(1-(1H-Pyrazol-4-yl)piperidin-4-yl)phenyl)acetamide]
- Stability HLM % @ 30 min [1]: 0%
- IC50 [2]: 0.05 µM
- HLM % inh. @ 500 nM [3]: 86.00%
- inhibition at 0.5 µM [4]: 95%
- RKM % inh. @ 500 nM [5]: 40.00%
- RLM % inh. @ 500 nM [6]: 37.00%
- solubility at 2 h ([8]; OD620, read-out: Max Solub): 482 µM
- solubility at 2 h ([8]; read-out: Solubility_ug/mL): 137 µg/mL

SMILES: c1ccc(SC2CCN(c3cn[nH]c3)CC2)cc1 [Compound 40, 4-(Phenylthio)-1-(1H-pyrazol-4-yl)piperidine]
- Stability HLM % @ 30 min [1]: 82%
- IC50 [2]: 0.1 µM
- HLM % inh. @ 500 nM [3]: 65.80%
- inhibition at 0.5 µM [4]: 75.9%
- RLM % inh. @ 500 nM [6]: 7.80%
- solubility at 2 h ([8]; OD620, read-out: Max Solub): 95.5 µM
- solubility at 2 h ([8]; read-out: Solubility_ug/mL): 24.8 µg/mL

SMILES: COc1ccc(C2CCN(c3cn[nH]c3)CC2)cc1F [Compound 44, 4-(3-Fluoro-4-methoxyphenyl)-1-(1H-pyrazol-4-yl)piperidine]
- Stability HLM % @ 30 min [1]: 100%
- IC50 [2]: 0.05 µM
- HLM % inh. @ 500 nM [3]: 85.00%
- inhibition at 0.5 µM [4]: 86%
- RKM % inh. @ 500 nM [5]: 21.00%
- IC50 [9]: 340 nM
- RLM % inh. @ 500 nM [6]: 42.00%

SMILES: COc1ccc(C2CCN(c3cn[nH]c3)CC2)c(F)c1 [Compound 47, 4-(2-Fluoro-4-methoxyphenyl)-1-(1H-pyrazol-4-yl)piperidine]
- Stability HLM % @ 30 min [1]: 100%
- IC50 [2]: 0.08 µM
- HLM % inh. @ 500 nM [3]: 82.00%
- inhibition at 0.5 µM [4]: 88%
- RKM % inh. @ 500 nM [5]: 0.00%
- RLM % inh. @ 500 nM [6]: 63.00%

SMILES: CCS(=O)(=O)c1ccc(C2CCN(c3cn[nH]c3)CC2)cc1 [Compound 52, 4-(4-(Ethylsulfonyl)phenyl)-1-(1H-pyrazol-4-yl)piperidine]
- Stability HLM % @ 30 min [1]: 100%
- IC50 [2]: 0.08 µM
- HLM % inh. @ 500 nM [3]: 84.10%
- inhibition at 0.5 µM [4]: 74.8%
- RLM % inh. @ 500 nM [6]: 13.40%
- solubility at 2 h ([8]; OD620, read-out: Max Solub): 244 µM
- solubility at 2 h ([8]; read-out: Solubility_ug/mL): 78 µg/mL

SMILES: CCS(=O)(=O)c1ccc(C2CCN(c3ccn[nH]3)CC2)cc1 [Compound 58, 4-(4-(Ethylsulfonyl)phenyl)-1-(1H-pyrazol-5-yl)piperidine]
- Stability HLM % @ 30 min [1]: 97%
- IC50 [2]: 0.11 µM
- HLM % inh. @ 500 nM [3]: 67.40%
- inhibition at 0.5 µM [4]: 70.6%
- RLM % inh. @ 500 nM [6]: 0.00%
- solubility at 2 h ([8]; OD620, read-out: Max Solub): 394 µM
- solubility at 2 h ([8]; read-out: Solubility_ug/mL): 126 µg/mL

SMILES: COc1cncc(C2CCN(c3cn[nH]c3)CC2)c1 [Compound 59, 3-(1-(1H-Pyrazol-4-yl)piperidin-4-yl)-5-methoxypyridine]
- Stability HLM % @ 30 min [1]: 98%
- IC50 [2]: 0.19 µM
- HLM % inh. @ 500 nM [3]: 63.30%
- inhibition at 0.5 µM [4]: 73.7%
- RLM % inh. @ 500 nM [6]: 64.40%
- solubility at 2 h ([8]; OD620, read-out: Max Solub): > 600 µM
- solubility at 2 h ([8]; read-out: Solubility_ug/mL): 155 µg/mL
